In ChEMBL document CHEMBL1157247, “Bioactive natural and semisynthetic latrunculins” (2006) one finds MIC and Activity data, which are given here for eleven compounds.

Test [1] deals with Saccharomyces cerevisiae. Kind of test: Antifungal activity against Saccharomyces cerevisiae by modified microtiter plate assay. In kind it is functional.
The test system of test [2] is Candida albicans. The test can be described thus: Antifungal activity against Candida albicans ATCC 10231 by modified microtiter plate assay. In kind it is functional.
The species entered for test [3] is Mus musculus. The test can be described thus: Antiproliferative activity against mouse B16B15b cells at 1 uM after 18 hrs by alamar blue assay relative to control. In kind it is functional, cell-based. Background: Alamar Blue is a resazurin reagent that responds to reducing activity.
Test [4] deals with Bacillus cereus. Kind of test: Antibacterial activity against Bacillus cereus by modified microtiter plate assay. In kind it is functional.
The test system of test [5] is Staphylococcus aureus. Kind of test: Antibacterial activity against Staphylococcus aureus ATCC 6535 by modified microtiter plate assay. In kind it is functional.
For test [6], the species on record is Gallus gallus. Kind of test: Antiangiogenic activity in fertilized white leghorn chicken eggs at 57 uM/disk by CAM assay. In kind it is functional. The conditions noted are these: Egg.
The species entered for test [7] is Gallus gallus. The test can be described thus: Antiangiogenic activity in fertilized white leghorn chicken eggs at 12 uM/disk by CAM assay. In kind it is functional. The conditions noted are these: Egg.
For test [8], the species on record is Mus musculus. Kind of test: Inhibition of mouse B16B15b cell migration at 1 uM by Boyden's camber assay. In kind it is functional.
The species named for test [9] is Mus musculus. Kind of test: Inhibition of mouse B16B15b cell migration assessed as wound closure rate at 1 uM after 14 hrs by wound healing assay relative to control. In kind it is functional.

Each structure is given as a SMILES string. ≈ marks a conversion by molar mass, not a printed value. Calls of active or inactive are those of the source.

Regarding `C/C1=C/C(=O)O[C@@H]2CC(CC[C@H](C)/C=C\C=C\CC1)O[C@@](O)([C@H]1CSC(=O)N1)C2`, the MIC in [1] and in [2] was 2.5 µM (≈ 1.05 µg/mL) in each case.

With `CC(=O)N1C(=O)SC[C@H]1C(=O)/C=C/C[C@H]1CC[C@H](C)/C=C\CC/C(C)=C\C(=O)O1`, the minimum inhibitory concentration (MIC) in test [1] came to 2.5 µM (≈ 1.05 µg/mL); in [4], 17.8 µM (≈ 7.47 µg/mL); in test [5], 17.8 µM (≈ 7.47 µg/mL); in test [2] it was 2.5 µM (≈ 1.05 µg/mL). Moreover, in test [3], the result was Active.

Take `COc1cc(/C=C/C(=O)CC(=O)/C=C/c2ccc(O)c(OC)c2)ccc1O`: the outcome in [6] was Active.

Turning to `CO[C@]1([C@@H]2CSC(=O)N2)C[C@H]2C[C@@H](CC[C@H](C)/C=C\CC/C(C)=C\C(=O)O2)O1` [15-METHOXYLATRUNCULIN B], the outcome in test [7] and in [8] was Active. Also, the MIC in [1] and in test [2] was 2.5 µM (≈ 1.02 µg/mL) in each case.

Consider `CCCCO[C@]1([C@@H]2CSC(=O)N2)C[C@H]2C[C@@H](CC[C@H](C)/C=C\CC/C(C)=C\C(=O)O2)O1` [15-O-BUTYLLATRUNCULIN B], for which the MIC in test [1] and in test [2] was 2.5 µM (≈ 1.13 µg/mL) throughout. In test [3], the result was Active.

On to `CCCCCCCCO[C@]1([C@@H]2CSC(=O)N2)C[C@H]2C[C@@H](CC[C@H](C)/C=C\CC/C(C)=C\C(=O)O2)O1` [15-O-OCTYLLATRUNCULIN B], for which the MIC in [1] came to 2.5 µM (≈ 1.27 µg/mL); in test [4], 14.7 µM (≈ 7.46 µg/mL); in [5] it was 14.7 µM (≈ 7.46 µg/mL); in [2], 2.5 µM (≈ 1.27 µg/mL). The result in [3] was Active.

Take `Clc1ccccc1C(c1ccccc1)(c1ccccc1)n1ccnc1` [CLOTRIMAZOLE]: the MIC in test [1] and in test [2] was 21.7 µM (≈ 7.48 µg/mL) in each case.

On to `C/C1=C/C(=O)O[C@@H]2C[C@@H](CC[C@H](C)/C=C\CC1)O[C@@](O)([C@@H]1CSC(=O)N1)C2` [LATRUNCULIN B], for which the MIC in test [1] and in test [2] was 2.5 µM (≈ 0.989 µg/mL) each time. Besides, the outcome in [3] and in test [9] was Active.

As for `CC(=O)N1C(=O)SC[C@H]1[C@@]1(O)C[C@H]2C[C@@H](CC[C@H](C)/C=C\CC/C(C)=C\C(=O)O2)O1` [N-ACETYLLATRUNCULIN B], the MIC in [1] and in test [2] was 2.5 µM (≈ 1.09 µg/mL) each time. Further, in [9], the result was Active.

With `C/C1=C/C(=O)O[C@@H]2C[C@@H](CC[C@H](C)/C=C\CC1)O[C@@](O)([C@@H]1CSC(=O)N1CO)C2` [N-HYDROXYMETHYLLATRUNCULIN B], the MIC in [1] and in [2] was 2.5 µM (≈ 1.06 µg/mL) each time. Besides, in test [8], the result was Active.

For `CC1(C)S[C@@H]2[C@H](NC(=O)Cc3ccccc3)C(=O)N2[C@H]1C(=O)O` [PENICILLIN G], the MIC in [4] and in test [5] was 22.4 µM (≈ 7.49 µg/mL) each time.

By MIC is commonly meant the smallest concentration in the dilution series that meets the test's criterion for growth inhibition.
